*1 amine or outer side, *2 acyl side, *3 side chain or, on linkers, in order; H or OH if unused. Where a SMILES comes first, the peptide text is derived from it. The star is where a group is joined. X1 = O=C(CCCC[C@@H]1SC[C@@H]2NC(=O)N[C@@H]21)NCCCOCCOCCOCCCN*; Suc = O=C(CCC(=O)[*:2])[*:1]
What was measured:
[1] = molecular target: isolated PDZ domain of SNX27; settings: 10-mer PBM peptide vs isolated PDZ domain, holdup; cited from earlier work
SCRIB PDZ4 = settings: fragmentomic, isolated PDZ domain; cited from earlier work
From the text: (§1) Supplement sciadv.ade3828_table_s1.zip/sciadv.ade3828_table_s1.xlsx, sheet "nHU-WB_SP"

SCRIB PDZ3 = settings: fragmentomic, isolated PDZ domain; cited from earlier work
From the text: as §1

SCRIB PDZ2 = settings: fragmentomic, isolated PDZ domain; cited from earlier work
From the text: as §1

SCRIB PDZ1 = settings: fragmentomic, isolated PDZ domain; cited from earlier work
From the text: Supplement sciadv.ade3828_table_s1.zip/sciadv.ade3828_table_s1.xlsx, sheet "nHU-WB_SP" | column: Domain-motif fragmentomic affinities (ProfAff)

[2] = molecular target: endogenous full-length SCRIB (Homo sapiens, UniProt Q14160); assay type: binding; settings: titration, Jurkat extract
endogenous full-length SCRIB, sequence (Q14160 whole entry, the tested form may be a part): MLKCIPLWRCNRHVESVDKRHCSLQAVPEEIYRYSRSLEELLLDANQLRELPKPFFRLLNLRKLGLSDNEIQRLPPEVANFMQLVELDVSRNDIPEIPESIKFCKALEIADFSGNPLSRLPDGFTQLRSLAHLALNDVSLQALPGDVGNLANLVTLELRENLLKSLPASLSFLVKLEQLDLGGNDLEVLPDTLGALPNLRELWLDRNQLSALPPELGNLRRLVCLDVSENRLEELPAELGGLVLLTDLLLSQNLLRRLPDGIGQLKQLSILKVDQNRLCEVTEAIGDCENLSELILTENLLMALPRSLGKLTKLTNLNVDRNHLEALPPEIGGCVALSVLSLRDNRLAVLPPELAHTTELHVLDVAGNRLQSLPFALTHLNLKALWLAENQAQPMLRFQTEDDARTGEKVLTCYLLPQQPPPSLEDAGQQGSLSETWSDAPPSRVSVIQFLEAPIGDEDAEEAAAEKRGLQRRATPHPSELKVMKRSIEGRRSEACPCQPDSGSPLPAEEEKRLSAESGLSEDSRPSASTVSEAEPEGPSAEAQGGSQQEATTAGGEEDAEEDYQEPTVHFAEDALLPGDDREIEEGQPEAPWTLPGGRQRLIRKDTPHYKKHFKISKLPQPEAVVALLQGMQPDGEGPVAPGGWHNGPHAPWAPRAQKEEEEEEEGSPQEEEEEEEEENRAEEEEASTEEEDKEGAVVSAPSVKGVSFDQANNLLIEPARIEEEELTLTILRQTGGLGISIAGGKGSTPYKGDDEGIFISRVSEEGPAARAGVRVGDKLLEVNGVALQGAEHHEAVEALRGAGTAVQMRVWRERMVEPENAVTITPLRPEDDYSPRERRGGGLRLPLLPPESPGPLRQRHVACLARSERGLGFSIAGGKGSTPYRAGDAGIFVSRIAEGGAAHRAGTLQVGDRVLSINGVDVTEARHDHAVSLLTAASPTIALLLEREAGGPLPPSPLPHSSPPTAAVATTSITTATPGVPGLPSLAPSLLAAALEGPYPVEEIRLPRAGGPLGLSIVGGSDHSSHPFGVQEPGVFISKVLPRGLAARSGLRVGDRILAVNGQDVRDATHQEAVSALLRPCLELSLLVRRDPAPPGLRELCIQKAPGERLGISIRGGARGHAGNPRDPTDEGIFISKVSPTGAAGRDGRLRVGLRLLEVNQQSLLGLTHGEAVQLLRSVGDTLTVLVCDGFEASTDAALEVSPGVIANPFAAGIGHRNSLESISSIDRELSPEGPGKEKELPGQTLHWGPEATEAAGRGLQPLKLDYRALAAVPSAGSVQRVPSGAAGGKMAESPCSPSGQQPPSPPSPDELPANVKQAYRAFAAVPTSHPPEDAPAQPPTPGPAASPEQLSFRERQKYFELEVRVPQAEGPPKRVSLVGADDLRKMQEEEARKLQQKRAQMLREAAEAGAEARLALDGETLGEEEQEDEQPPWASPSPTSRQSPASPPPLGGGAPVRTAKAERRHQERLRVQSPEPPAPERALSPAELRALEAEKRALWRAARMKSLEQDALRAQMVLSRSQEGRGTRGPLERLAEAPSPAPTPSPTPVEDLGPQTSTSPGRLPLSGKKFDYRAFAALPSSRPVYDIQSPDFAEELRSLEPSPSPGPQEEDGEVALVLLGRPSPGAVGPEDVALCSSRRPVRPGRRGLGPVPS

[3] = molecular target: isolated PDZ domain of SNX27; settings: calorimetry; cited from earlier work
SNX27_PDZ [4] = assay: nHU-MS, SNX27_PDZ bait, total SH-SY5Y extracts; assay type: binding, human; settings: for pKapp_HU_not_filtered / pKapp_significant_binders_HU: apparent; for pKapp_HU_not_filtered: Eq. 2, not filtered for significance; for pKapp_significant_binders_HU: Eq. 2, significant binders (1 σ, P < 0.05); for BI_HU / FC_HU (log2 fold change) / Ratio_HU: n = 6
Description: (§2) The empty His6-AviTag-MBP-TEV vector was used to produce biotinylated MBP for control experiments. Proteins were coexpressed with BirA biotin ligase (PET21a-BirA, Addgene, no. 20857) in Escherichia coli BL21(DE3) cells. At isopropyl-β-D-thiogalactopyranoside (IPTG) induction (1 mM IPTG at 18°C overnight), 50 μM biotin was added to the media. Harvested cells were lysed in a buffer containing 50 mM tris (pH 7.5), 150 to 300 mM NaCl, 50 μM biotin, 2 mM β-mercaptoethanol, cOmplete EDTA-free protease inhibitor cocktail (Roche, Basel, Switzerland), 1% Triton X-100, and trace amount of deoxyribonuclease, ribonuclease, and lysozyme. Lysates were frozen at −20°C before further purification steps. Lysates were sonicated and centrifuged for clarification. Expressed proteins were captured on in-house prepacked Ni-IDA (Protino Ni-IDA Resin, Macherey-Nagel, Duren, Germany) columns and were washed with at least 10 column volumes of cold wash buffer [50 mM tris (pH 7.5), 150 mM NaCl, and 2 mM β-mercaptoethanol] before elution with 250 mM imidazole. The Ni elution was collected directly on a preequilibrated amylose column (amylose high flow resin, New England Biolabs, Ipswich, MA). Amylose column was washed with 5 column volumes of cold wash buffer before fractionated elution in a buffer containing 25 mM Hepes (pH 7.5), 150 mM NaCl, 1 mM TCEP, 10% glycerol, 5 mM maltose, and cOmplete EDTA-free protease inhibitor cocktail. The concentration of proteins was determined by their ultraviolet absorption at 280 nm before aliquots were snap-frozen in liquid nitrogen and stored at −80°C.
(§3) For saturating streptavidin resin with biotinylated peptides or biotin, 50 μl of streptavidin resin was mixed with biotin or peptide at 40 to 60 μM concentration in 6 to 6.5 resin volume for 60 min. To saturate streptavidin resin with biotinylated proteins, 50 μl of streptavidin resin (Streptavidin Sepharose High Performance, Cytiva) was mixed with biotinylated MBP or MBP-PDZ at 40 to 50 μM concentration in 20× resin volume for 60 min. After saturation, resins were washed a single time [10 resin volume, holdup buffer: 50 mM tris (pH 7.5), 300 mM NaCl, and 1 mM TCEP, 0.22-μm filtered] and were depleted with biotin (10 resin volume, 10 min, holdup buffer supplemented with 100 μM biotin). Last, resins were washed two times (10 resin volume, holdup buffer).
(§4) For single-point nHU experiments carried out at ~10 μM bait concentration, 50 μl of saturated streptavidin resin was mixed with 200 μl of cell lysate (2 mg/ml). Titration experiments were carried out by mixing control and bait-saturated resin and keeping the total resin volume constant; e.g., ~5 μM bait concentration can be achieved by mixing 25 μl of bait-saturated streptavidin resin with 25 μl of control resin and 200 μl of cell lysate (2 mg/ml). Control and bait-saturated resins were prepared in larger amounts, and a serial dilution was prepared with these presaturated resins to achieve different resin ratios.
(§5) Unless specified elswhere, the nHU mixture was incubated at 4°C for 2 hours. After the incubation ended, the resin was separated from the supernatant by a brief centrifugation (15 s, 2000 g). Then, half of the supernatant was removed by pipetting without any delay to avoid any resin contamination; e.g., 100 μl of supernatant is collected if 200 μl of cell lysate was used as analyte. Alternatively, the supernatant can be centrifuged an additional time to clarify it further, removing any possible resin contamination. In principle, the separation of the supernatant should be as fast as possible since any delay can perturb the equilibrium. […] Alternatively, the resin can be separated from the supernatant using filter plates (e.g., various products of Millipore, Burlington, MA) or spin columns (e.g., Pierce spin cups—cellulose acetate filter from Thermo Fisher Scientific, Waltham, MA) to achieve faster separation. […]

SNX27_PDZ [5] = assay: AP-MS control pull-down on leftover resin, SNX27_PDZ bait, total SH-SY5Y extracts; assay type: binding, human; settings: n = 6
Description: (§6) Leftover beads from nHU-MS experiments were washed three times immediately after the separation of the supernatant [10 resin volume in buffer containing 50 mM tris (pH 8.5), 150 mM NaCl, 1% Triton X-100, 10× cOmplete EDTA-free protease inhibitor cocktail, 2 mM EDTA, and 1 mM TCEP]. Then, the beads were washed two times [10 resin volume buffer containing 50 mM tris (pH 8.5), 150 mM NaCl, and 1 mM TCEP]. Last, captured protein was eluted from the resin in two steps, and the eluted fractions were pooled. For each elution, the beads were incubated for 30 min with three resin volume buffer containing 20 mM tris (pH 8.5), 100 mM NaCl, 500 μM TCEP, and 8 M urea. Between each step, the beads were separated by mild centrifugation, and the supernatant was removed by gentle pipetting.
(§7) The nHU samples were precipitated with trichloroacetic acid (TCA) 20% overnight at 4°C and centrifuged at 14,000 rpm for 10 min at 4°C. The protein pellets were washed twice with 1 ml of cold acetone and air-dried. The protein extracts were solubilized in 8 M urea, reduced with 5 mM TCEP for 30 min, and alkylated with 10 mM iodoacetamide for 30 min in the dark. Double digestion was performed at 37°C with 500 ng of endoproteinase Lys-C (Wako, Richmond, USA) for 4 hours, followed by fourfold dilution and an overnight digestion with 500 ng of trypsin (Promega, Charbonnieres les Bains, France). Peptide mixtures were then desalted on a C18 spin-column and dried on a speed vacuum.
(§8) Samples were analyzed using an Ultimate 3000 nano-RSLC coupled in line via a nano-electrospray ionization source, with an LTQ-Orbitrap ELITE mass spectrometer (Thermo Fisher Scientific, San Jose, CA) or with the Orbitrap Exploris 480 mass spectrometer (Thermo Fisher Scientific, Bremen, Germany) equipped with a high field asymmetric ion mobility spectrometry (FAIMS) module. Peptide mixtures were injected in 0.1% trifluoroacetic acid on a C18 Acclaim PepMap100 trap column [75 μm inner diameter (ID) × 2 cm, 3 μm, 100 Å, Thermo Fisher Scientific] for 3 min at 5 μl/min with 2% acetonitrile (ACN) and 0.1% formic acid (FA) in H2O and then separated on a C18 Acclaim PepMap100 nano-column (75 μm ID × 50 cm, 2.6 μm, 150 Å, Thermo Fisher Scientific) at 300 nl/min and 40°C with a 90-min linear gradient from 5 to 30% buffer B (A: 0.1% FA in H2O/B: 80% ACN, 0.1% FA in H2O) and regeneration at 5% B. Spray voltage was set to 2.1 kV and heated capillary temperature was set to 280°C.
For the Orbitrap Elite, the mass spectrometer was operated in positive ionization mode in data-dependent mode with survey scans from mass/charge ratio (m/z) 350 to 1500 acquired in the Orbitrap at a resolution of 120,000 at m/z 400. […]

SNX27_PDZ [6] = assay: AP-MS control pull-down on leftover resin, SNX27_PDZ bait, total Jurkat extracts; assay type: binding, human
Description: as §6, §7, §8
For the Orbitrap Elite, the mass spectrometer was operated in positive ionization mode in data-dependent mode with survey scans from mass/charge ratio (m/z) 350 to 1500 acquired in the Orbitrap at a resolution of 120,000 at m/z 400. The 20 most intense peaks from survey scans were selected for further fragmentation in the linear ion trap with an isolation window of 2.0 Da and were fragmented by collision-induced dissociation (CID) with a normalized collision energy of 35% (TOP 20 CID method). Unassigned and single-charged states were excluded from fragmentation. The ion target value for the survey scans (in the Orbitrap) and the MS2 mode (in the linear ion trap) were set to 1E6 and 5E3, respectively, and the maximum injection time was set to 100 ms for both scan modes. Dynamic exclusion was set to 20 s after one repeat count with mass width at ±10 parts per million (ppm). […]

SNX27_PDZ [7] = assay: nHU-MS, SNX27_PDZ bait, total Jurkat extracts, series 1; assay type: binding, human
Description: as §2, §3, §4, §5

full-length SNX27 = assay: nHU-MS, recombinant full-length SNX27 bait, total Jurkat extracts; assay type: binding, human; settings: apparent, Fig. 4D, n = 6
Description: as §2, with “Amylose column was washed with 5 column volumes of cold wash buffer before fractionated elution in a buffer containing 25 mM Hepes (pH 7.5), 150 mM NaCl, 1 mM TCEP, 10% glycerol, 5 mM maltose, and cOmplete EDTA-free protease inhibitor cocktail.” left out, “−80°C. […]” for “−80°C.”

[8] = Jurkat, series 1, leftover resin, n = 6

For `CC(C)C[C@H](NC(=O)[C@H](CO)NC(=O)[C@H](CO)NC(=O)CCC(=O)NCCCOCCOCCOCCCNC(=O)CCCC[C@@H]1SC[C@@H]2NC(=O)N[C@@H]21)C(=O)N[C@@H](CCC(N)=O)C(=O)N[C@@H](CO)C(=O)N[C@@H](CC(C)C)C(=O)N[C@@H](CCC(=O)O)C(=O)N[C@H](C(=O)N[C@@H](CO)C(=O)N[C@H](C(=O)O)C(C)C)[C@@H](C)O` [ATP2B4] ({X1-Suc}-SSLQSLETSV-OH; C-terminus assumed), the “pKd (fragmentomic affinity)” value [1] is listed as 5.70, the pKd_PDZ4 (SCRIB PDZ4) is listed as 4.38 and the pKd_PDZ3 (SCRIB PDZ3) is listed as 5.11. For the same molecule, the pKd_PDZ2 (SCRIB PDZ2) was 4.90 and the pKd_PDZ1 (SCRIB PDZ1) was 5.03.

For `CC[C@H](C)[C@H](NC(=O)CCC(=O)NCCCOCCOCCOCCCNC(=O)CCCC[C@@H]1SC[C@@H]2NC(=O)N[C@@H]21)C(=O)N[C@@H](CCC(N)=O)C(=O)N[C@@H](CCCNC(=N)N)C(=O)N[C@@H](CCC(=O)O)C(=O)N[C@@H](CC(=O)O)C(=O)N[C@@H](CCC(N)=O)C(=O)N[C@@H](CCC(=O)O)C(=O)N[C@H](C(=O)N[C@@H](C)C(=O)N[C@H](C(=O)O)C(C)C)[C@@H](C)O` [DGKZ] ({X1-Suc}-IQREDQETAV-OH; C-terminus assumed), the “pKd (fragmentomic affinity)” value [1] is listed as 6.0, the Hill coefficient ([2]; Hill equation fit, three replicates) is listed as 0.6 and the cooperativity [2] is listed as “negative cooperativity”. The pKd [3] was 5.7, the pKd_PDZ4 (SCRIB PDZ4) was 4.40 and the pKd_PDZ3 (SCRIB PDZ3) was 5.05. The pKd_PDZ2 (SCRIB PDZ2) was 4.86 and the pKd_PDZ1 (SCRIB PDZ1) was 4.71.

ELOC: Elongin-C gave a pKapp_HU_not_filtered (SNX27_PDZ [4]) of 4.672, a pKapp_significant_binders_HU (SNX27_PDZ [4]) of 4.672 and a BI_HU (SNX27_PDZ [4]) of 0.3189. For the same molecule, the “FC_HU (log2 fold change)” value (SNX27_PDZ [4]) was -0.5541, the Ratio_HU (SNX27_PDZ [4]) was 0.6811 and the “FC_AP (log2 fold change)” value (SNX27_PDZ [5]) was -2.345. It also gave a Ratio_AP (SNX27_PDZ [5]) of 0.1968.

With MACROH2A1 the Ratio_AP (SNX27_PDZ [6]; AP-MS control pull-down, SNX27/MBP, total Jurkat extract) was 19.7749, the FC_AP (SNX27_PDZ [6]; AP-MS control pull-down, SNX27 vs MBP, total Jurkat extract) was 4.3056 and the BINDER_AP (SNX27_PDZ [6]; AP-MS control pull-down, total Jurkat extract, BINDS / DOES NOT BIND) was “BINDS”. The Ratio_HU (SNX27_PDZ [7]; nHU-MS, SNX27/MBP, total Jurkat extract, sheet "SNX27&Jurkat") was 0.6592, the BI_HU (SNX27_PDZ [7]; nHU-MS, SNX27 bait vs MBP control, total Jurkat extract, sheet "SNX27&Jurkat") was 0.3408 and the pKapp_HU_not_filtered (SNX27_PDZ [7]; nHU-MS, SNX27 bait, total Jurkat extract, not filtered for significance) was 4.715. It also gave an FC_HU (SNX27_PDZ [7]; nHU-MS, SNX27 vs MBP control, total Jurkat extract, sheet "SNX27&Jurkat") of -0.6013.

With SNX1: component of the SNX-BAR complex the pKapp (full-length SNX27) was 5.47.

With “TXNDC12: Thioredoxin domain-containing protein 12 OS=Homo sapiens” the “FC_AP (log2 fold change)” value (SNX27_PDZ [6]; [8]) was -0.5204, the Ratio_AP (SNX27_PDZ [6]; [8]) was 0.6972 and the BI_HU (SNX27_PDZ [7]; Jurkat, series 1, n = 6) was 0.2712. The “FC_HU (log2 fold change)” value (SNX27_PDZ [7]; Jurkat, series 1, n = 6) was -0.4564, the Ratio_HU (SNX27_PDZ [7]; Jurkat, series 1, n = 6) was 0.7288 and the pKapp_significant_binders_HU (SNX27_PDZ [7]; apparent, Eq. 2, Jurkat, series 1, significant binders (1 σ, P < 0.05)) was 4.572.

For “VPS26B: component of the retromer complex”, the pKapp (full-length SNX27) was 5.23.

Work on VTN: Vitronectin yielded a pKapp_HU_not_filtered (SNX27_PDZ [4]) of 4.715, a pKapp_significant_binders_HU (SNX27_PDZ [4]) of 4.715 and a BI_HU (SNX27_PDZ [4]) of 0.3408. The “FC_HU (log2 fold change)” value (SNX27_PDZ [4]) was -0.6012, the Ratio_HU (SNX27_PDZ [4]) was 0.6592 and the “FC_AP (log2 fold change)” value (SNX27_PDZ [5]) was 0.6536. The Ratio_AP (SNX27_PDZ [5]) was 1.573.

Reference: paper PMC9770967, “Native holdup (nHU) to measure binding affinities from cell extracts” (Science Advances, 2022)
